Measured values published in ChEMBL document CHEMBL2029268, “A new high-yield synthetic route to PET CB1 radioligands [11C]OMAR and its analogs” (Bioorg Med Chem Lett, 2012).

Assay: Octanol-water distribution coefficient, log P of the compound by HPLC analysis
Type: physicochemical

Structure (SMILES) | logP
[11CH3]Oc1ccc(-c2c(C#N)c(C(=O)NN3CCCC3)nn2-c2ccccc2Br)cc1 | 2.03
[11CH3]Oc1ccc(-c2c(C#N)c(C(=O)NN3CCCCC3)nn2-c2ccccc2Br)cc1 | 2.29
